# Data from article PMC3511009, “Modulating the activity of short arginine-tryptophan containing antibacterial peptides with N-terminal metallocenoyl groups” (Beilstein Journal of Organic Chemistry, 2012).
# Read-outs that look alike come from different tables or passages of the source. Square brackets hold non-standard residues; d marks the D form. Peptide text beside a SMILES is read from it. * marks the point of attachment. X1 = O=C([C]12[CH]3[CH]4[CH]5[CH]1[Ru]45321678[CH]2[CH]1[CH]6[CH]7[CH]28)*
# How the values were obtained:
# [1] = test system: Escherichia coli DSM 30083
# Procedure: (§1) The antibacterial activity of the peptides was first assessed by determining their minimum inhibitory concentration (MIC) value. This MIC value represents the lowest concentration of the antibacterial agent that is needed to hinder the growth of the bacteria. For this, six standard bacterial strains – among them three Gram-negative and three Gram-positive pathogens – were incubated with increasing concentrations of the antibacterial peptide (Table 2). In order to put the activities of these RW-based synAMPs and their organometallic conjugates into perspective, two reference peptides were included, i.e., membrane-targeting gramicidin S derivative GS(K2Y2) and cell wall precursor lipid II-targeting vancomycin.
# (§2) The minimal inhibitory concentrations (MIC) were tested against Escherichia coli DSM 30083, Acinetobacter baumannii DSM 30007, Pseudomonas aeruginosa DSM 50071, Bacillus subtilis DSM 402, Staphylococcus aureus DSM 20231 (type strain), and Staphylococcus aureus ATCC 43300 (MRSA) in a microtiter plate assay according to CLSI guidelines. E. coli, A. baumannii, S. aureus, and B. subtilis were grown in Mueller–Hinton (MH) broth, P. aeruginosa in cation adjusted Mueller–Hinton II. […] Serial dilution in culture media was carried out automatically with the Tecan Freedom Evo 75 liquid handling workstation (Tecan, Männedorf, Switzerland) from 512 to 0.5 µg/mL. Peptide dilutions were inoculated with 10^5 bacteria/mL taken from late exponential cultures grown in the same media in a total volume of 200 µL per well. Cells were incubated for 16 h at 37 °C. The lowest peptide concentration inhibiting visible bacterial growth was taken as MIC.
# (§3) Cells were grown in DMEM until late exponential phase before using them for inoculation. Peptide concentrations, inoculation and incubation were performed as described above.
# [2] = test system: M. luteus; assay: MIC in half-concentrated MH broth, polypropylene plates; assay type: cell-based; settings: 18 h
# Procedure: (§4) Determination of MIC values was performed in 96-well polypropylene microtiter plates (Life Technologies) in order to reduce the AMP binding. A series of 2-fold dilutions of the peptides was prepared directly in the plate in half-concentrated MH broth. The tested strains were grown to an optical density (600 nm) of 0.5 in half-concentrated MH broth and diluted 1:10^5 using the same medium. Then, 100 µL of this suspension was mixed with 100 µL of the peptide solution already prepared in the wells of the microtiter plate as mentioned earlier. […] The results given are mean values of three or more independent determinations.
# [3] = test system: S. aureus (133); assay: as above; assay type: cell-based; settings: 133, 18 h
# Procedure: as §4
# [4] = test system: human colon adenocarcinoma grade II (HT29); assay type: cell-based
# Procedure: (§5) Finally, to determine whether the peptides are selective for bacterial cells, we tested the toxicity against mammalian cells using three malignant cell lines: human liver carcinoma (HepG2), human colon adenocarcinoma grade II (HT29) and human breast adenocarcinoma (MCF7) cell lines (Table 5).
# (§6) After drawing whole blood into anticoagulant containing tubes (BD Vacutainer®, K2 EDTA 3.6 mg, Ref 368841, Lot 1248213), its fractionation was executed with one volume whole blood added to nine volumes sterile 0.9% NaCl and centrifugation (800g, 10 min, 4 °C). Subsequently, the lowest fraction containing all hRBCs was washed twice with nine volumes 1 × PBS (PAA), triturating carefully. The concentrated hRBCs were re-suspended with 1 × PBS to an erythrocyte concentration of 5% (v/v). Wells of a 96-well plate were filled with 100 µL of the appropriate peptide solutions: The peptides were dissolved in 1 × PBS and DMSO (5% for (RW)3 and 50% for RcCO-W(RW)2). These were mixed with 100 µL of the 5% hRBCs solution and incubated under agitation on a flat shaker (170 rpm, 30 min, 37 °C). After sedimenting all probes under centrifugation (800g, 10 min, 4 °C), all supernatants were transferred into a clean 96-well plate. The release of hemoglobin was monitored by measuring the absorbance of the supernatant at 550 nm using an automated 96-well plate reader. Controls for 0 and 100% hemolysis consisted of hRBC 5% (v/v) suspended in PBS containing DMSO in appropriate concentrations and 1% Triton X-100, respectively. Toxicity on human cancer cell lines was determined according to previously described procedures.
# [5] = test system: human breast adenocarcinoma (MCF7); assay type: cell-based
# Procedure: as §5, §6
# [6] = test system: human liver carcinoma (HepG2); assay type: cell-based
# Procedure: as §5, §6
# [7] = test system: human red blood cells (hRBCs); assay: Hemolytic activity; assay type: cell-based
# Procedure: (§7) Although an HC50 value was reported for (RW)3 [53], neither the D-amino acid peptide nor the organometallic derivatized peptides were studied with respect to their hemolytic capacity. Therefore, all peptides were tested in parallel to obtain HC50 values under identical conditions.
# as §6, with “After sedimenting all probes under centrifugation (800g, 10 min, 4 °C), all supernatants were transferred into a clean 96-well plate.” left out, “Controls for 0 and 100% hemolysis consisted of hRBC 5% (v/v) suspended in PBS containing DMSO in appropriate concentrations and 1% Triton X-100, respectively.” left out
# [8] = test system: human red blood cells (hRBCs); settings: cited from earlier work
# [9] = test system: Bacillus subtilis DSM 402; assay: microbe, parasite or virus in culture; settings: for Minimum inhibitory concentration, B. subtilis: DSM 402, 16 h
# Procedure: as §1, §2, §3
# [10] = test system: Acinetobacter baumannii DSM 30007; assay: microbe, parasite or virus in culture
# Procedure: as §1, §2, §3
# [11] = test system: Staphylococcus aureus DSM 20231 (type strain); assay: microbe, parasite or virus in culture
# Procedure: as §1, §2, §3
# [12] = test system: three human cancer cell lines (HepG2, HT29, MCF7)
# Procedure: Toxicity on human cancer cell lines was determined according to previously described procedures [67–68].
# [13] = test system: Staphylococcus aureus ATCC 43300 (MRSA); assay: microbe, parasite or virus in culture
# Procedure: as §1, §2, §3
# [14] = test system: Pseudomonas aeruginosa DSM 50071; assay: MIC, microtiter plate assay (CLSI); assay type: cell-based; settings: for Minimum inhibitory concentration, P. aeruginosa: title: in the cell culture medium, CLSI guidelines, µM calculated with one TFA counterion per basic residue
# Procedure: as §1, §2, §3
# [15] = Hemolytic activity; assay type: cell-based, human; settings: human, at 263 µg/mL (192 µM); 50% DMSO/PBS; relative to Triton X-100; read-out: hemolysis of hRBCs
# Procedure: as §7
# as §6, with “After sedimenting all probes under centrifugation (800g, 10 min, 4 °C), all supernatants were transferred into a clean 96-well plate.” left out, “Controls for 0 and 100% hemolysis consisted of hRBC 5% (v/v) suspended in PBS containing DMSO in appropriate concentrations and 1% Triton X-100, respectively.” left out
# [16] = title: in the cell culture medium, CLSI guidelines, µM calculated with one TFA counterion per basic residue
# [17] = value outside brackets, title: in the cell culture medium
compound,measurement,setting,value
N=C(N)NCCCC(N)C(=O)NC(Cc1c[nH]c2ccccc12)C(=O)NC(CCCNC(=N)N)C(=O)NC(Cc1c[nH]c2ccccc12)C(=O)NC(CCCNC(=N)N)C(=O)NC(Cc1c[nH]c2ccccc12)C(N)=O (stereo not drawn) [(RW)3] (H-RWRWRW-NH2; configuration not given here),"Minimum inhibitory concentration, E. coli","[1]; DSM 30083, 16 h",21 µM
same,"MIC, M. luteus",[2],0.6 ± 0.0 µg/mL
same,"MIC, S. aureus (133)",[3],2.1 ± 0.7 µg/mL
same,IC50,[4],132 ± 12 µM
same,IC50,[5],159 ± 7 µM
same,IC50,[6],143 ± 21 µM
same,concentration up to which no significant destruction of erythrocytes,[7],up to 500 µg/mL
same,concentration of 50% hemolysis,[8],~ 250 µM
same,"Minimum inhibitory concentration, B. subtilis",[9],1.3 µM
same,"Minimum inhibitory concentration, A. baumannii","[10]; DSM 30007, 16 h",21 µM
same,"Minimum inhibitory concentration, S. aureus","[11]; DSM 20231, 16 h",11 (11) µM
same,IC50,[12],~140 µM
"CC(C)C[C@@H]1NC(=O)[C@H](CCCCN)NC(=O)[C@H](C(C)C)NC(=O)[C@@H]2CCCN2C(=O)[C@@H](Cc2ccc(O)cc2)NC(=O)[C@H](CC(C)C)NC(=O)[C@H](CCCCN)NC(=O)[C@H](C(C)C)NC(=O)[C@@H]2CCCN2C(=O)[C@@H](Cc2ccc(O)cc2)NC1=O [GS(K2Y2), cyclo([Pro-Val-Lys-Leu-D-Tyr]2), reference compound] (cyclo(PVKL[dY]PVKL[dY]))","Minimum inhibitory concentration, S. aureus (MRSA)","[13]; ATCC 43300, 16 h",2.8 µM
same,"Minimum inhibitory concentration, B. subtilis",[9],1.4 µM
same,"Minimum inhibitory concentration, S. aureus","[11]; DSM 20231, 16 h",1.4 µM
same,"Minimum inhibitory concentration, P. aeruginosa",[14],n.a. (‘n.a.’ means ‘not active’ (MIC > 100 μM))
N=C(N)NCCC[C@H](NC(=O)[C@H](Cc1c[nH]c2ccccc12)NC(=O)[C@H](CCCNC(=N)N)NC(=O)[C@H](Cc1c[nH]c2ccccc12)NC(=O)[C]12[CH]3[CH]4[CH]5[CH]1[Ru]45321678[CH]2[CH]1[CH]6[CH]7[CH]28)C(=O)N[C@@H](Cc1c[nH]c2ccccc12)C(N)=O (stereo partly drawn) [RcCO-W(RW)2] (X1-WRWRW-NH2),"hemolysis at 30 min, 192 µM",[15],64%
"CN[C@H](CC(C)C)C(=O)N[C@H]1C(=O)N[C@@H](CC(N)=O)C(=O)N[C@H]2C(=O)N[C@H]3C(=O)N[C@H](C(=O)N[C@H](C(=O)O)c4cc(O)cc(O)c4-c4cc3ccc4O)[C@H](O)c3ccc(c(Cl)c3)Oc3cc2cc(c3O[C@@H]2O[C@H](CO)[C@@H](O)[C@H](O)[C@H]2O[C@H]2C[C@](C)(N)[C@H](O)[C@H](C)O2)Oc2ccc(cc2Cl)[C@H]1O [vancomycin, reference compound]",MIC,"[13]; Staphylococcus aureus, ATCC43300|MRSA, read-out: Minimum inhibitory concentration, S. aureus (MRSA)",0.6 µM
same,MIC,"[9]; Bacillus subtilis, DSM402, read-out: Minimum inhibitory concentration, B. subtilis",0.3 µM
same,MIC,"[10]; Acinetobacter baumannii, DSM30007, read-out: Minimum inhibitory concentration, A. baumannii",38 µM
same,MIC,"[11]; Staphylococcus aureus, DSM20231, read-out: Minimum inhibitory concentration, S. aureus",0.3 µM
same,MIC,"[14]; Pseudomonas aeruginosa, DSM50071, read-out: Minimum inhibitory concentration, P. aeruginosa",> 100 µM
"Ac-RWRWRW-NH2 [Ac(RW)3, Ac-RWRWRW-NH2]","Minimum inhibitory concentration, E. coli","[1]; DSM 30083, 16 h",45 µM
same,"Minimum inhibitory concentration, B. subtilis",[9],45 µM
FcCO-RWRWRW-NH2 [FcCO-(RW)3],"Minimum inhibitory concentration, E. coli",[1]; [16],20 µM
H-KWKWKW-NH2 [(KW)3],"Minimum inhibitory concentration, E. coli",[1]; [16],n.a. (‘n.a.’ means ‘not active’ (MIC > 100 μM))
same,"Minimum inhibitory concentration, S. aureus (MRSA)",[13]; [17],n.a. (‘n.a.’ means ‘not active’ (MIC > 100 μM))
same,"Minimum inhibitory concentration, A. baumannii",[10]; [16],n.a. (‘n.a.’ means ‘not active’ (MIC > 100 μM))
same,"Minimum inhibitory concentration, S. aureus",[11]; [17],n.a. (‘n.a.’ means ‘not active’ (MIC > 100 μM))
same,"Minimum inhibitory concentration, P. aeruginosa",[14],n.a. (‘n.a.’ means ‘not active’ (MIC > 100 μM))
